According to PMC11209715, “A novel selenium analog of HDACi-based twin drug induces apoptosis and cell cycle arrest via CDC25A to improve prostate cancer therapy” (Theranostics, 2024):

Experiments:
[1] = system: HT-29; test: CCK-8 cell viability assay, HT-29; assay type: cell-based; settings: Homo sapiens, Figure 2A
Protocol: (§1) Human cancer cell lines (PC3, DU145, A549, H1299, MDA-MB-231, HepG2, PANC-1, MIA PaCa-2, HT-29, HCT116, and HeLa) were obtained from the Cell Resource Center, Peking Union Medical College (National Infrastructure of Cell Line Resource, NSTI). These cell lines were cultured according to NSTI culture guidelines and cultured in RPMI 1640 medium (Biological Industries, Israel) supplemented with 10% heat-inactivated fetal bovine serum (FBS; BI; Israel), penicillin/streptomycin (P/S; 100 IU/ml; Gibco, 10378016) in an incubator at 37 °C and 5% CO2.
(§2) Cell cytotoxicity assays were performed in 96-well plates (NEST) to determine the growth kinetics of SeSA-DCA-treated cells using CCK-8 reagent (Shandong Sparkjade Biotechnology Co., Ltd., CT0001-B). Cells (5000 cells/well) were treated with DMSO or different drugs. Each treatment was performed in five replicates. To assess cell growth, 10 μL of CCK-8 reagent was introduced to every well and allowed to incubate for 4 h. Following that, the absorbance value for each well was measured at 450 nm. Every experiment was duplicated no less than thrice.

[2] = Drug toxicity test: blood biochemistry in nude mice; assay type: in vivo; parameters: TBIL / BUN: unit not given here; settings: serum of nude mice; for ALT: dose (DCA 100, SAHA 20, SeSAHA 20, Docetaxel 10, SeSA-DCA 20 mg/kg); for ALT / ALP / AST: in U/L (unit assumed); for ALB / GLOB / TP: in g/L (unit assumed)
Protocol: Blood samples from each mouse were kept at room temperature for 3 h and centrifuged at 8000 rpm for 15 min to produce serum. The samples were then placed on the blood routine detector for biochemical analysis.

[3] = system: PC3 cells; test: RNA-sequencing and GSEA of treated PC3 cells; assay type: cell-based, Human; settings: 48 h
Protocol: PC3 cells were seeded at a density of 5 × 10^6 cells/flask in two 75 cm^2 flasks. Treatment with drugs for 48 h was performed in one flask, whereas the other was used as a control. Total RNA was isolated using TRIZOL, and the total RNA was extracted from the sample with RNA extraction kit (Accurate Biotechnology (Hunan) Co., Ltd. ChangSha, China). DNA was digested with DNase (GenScript, E00053). Magnetic beads with Oligo (dT) were used to enrich eukaryotic mRNA, and cDNA library construction and sequencing were performed on the Illumina HiSeq Xten platform. After quality inspection, raw data (raw reads) were processed using Trimmomatic. Reads containing ploy-N and low-quality reads were removed to obtain clean reads. The clean reads were then mapped to the reference genome using HISAT2. The FPKM value of each gene was calculated using cufflinks, and the read counts of each gene were obtained by htseq-count. DEGs were identified using DESeq. […] Hierarchical cluster analysis of DEGs was performed to explore the gene expression patterns. KEGG pathway enrichment analysis and PPI and IPA analyses of the DEGs were performed.
GSEA was conducted using GSEA software.

[4] = system: PC3 cells; test: CCK-8 cell viability assay, PC3; assay type: cell-based; settings: Homo sapiens, PC-3, Figure 2B and text
Protocol: as §1, §2

[5] = system: HDAC; test: Inhibitory activity of SeSAHA compared with SAHA (data not shown); settings: preliminary results
[6] = versus DMSO, adjusted p-value < 0.05, |log2foldchange| > 1

SMILES | IC50 [1] | A/G [2] | BUN [2] | TBIL [2] | ALT [2] | ALP [2] | AST [2] | ALB [2] | GLOB [2] | TP [2] | changes in gene expression compared with DMSO [3] | IC50 [4] | downregulated transcripts/genes [3, 6] | upregulated transcripts/genes [3, 6] | inhibitory effect relative to SAHA [5]
O=C(CCCCCC[Se][Se]CCCCCCC(=O)Nc1cccc(COC(=O)C(Cl)Cl)c1)Nc1cccc(COC(=O)C(Cl)Cl)c1 | 8.71 µM | – | – | – | – | – | – | – | – | – | – | – | – | – | –
O=C(O)C(Cl)Cl [DCA, Dichloroacetate] | – | 0.36 ± 0.02 | 10.5 ± 0.88 | 0.49 ± 0.06 | 37.5 ± 4.5 | 36.2 ± 3.6 | 223.4 ± 35 | 13.45 ± 0.18 | 37.1 ± 0.22 | 51.5 ± 0.45 | minimal changes | > 18000 µM | – | – | –
CC(=O)O[C@@]12CO[C@@H]1C[C@H](O)[C@@]1(C)C(=O)[C@H](O)C3=C(C)[C@@H](OC(=O)[C@H](O)[C@@H](NC(=O)OC(C)(C)C)c4ccccc4)C[C@@](O)([C@@H](OC(=O)c4ccccc4)[C@H]21)C3(C)C [Docetaxel, docetaxel] | – | 0.38 ± 0.04 | 9.8 ± 0.8 | 0.7 ± 0.07 | 46.4 ± 5.7 | 34.2 ± 8.2 | 251.8 ± 48.3 | 14.6 ± 0.6 | 38.3 ± 3.1 | 52.8 ± 4.1 | – | – | – | – | –
O=C(CCCCCCC(=O)Nc1ccccc1)NO [SAHA, suberoylanilide hydroxamic acid] | – | – | 7.9 ± 1.5 | 0.8 ± 0.17 | 53.5 ± 5.5 | 34.3 ± 3.3 | 285.3 ± 40.6 | 15.8 ± 0.6 | 35.9 ± 3.6 | 51.7 ± 2.5 | – | – | 1573 | 2,024 | –
O=C(CCCCCC[Se][Se]CCCCCCC(=O)Nc1cccc(CO)c1)Nc1cccc(CO)c1 [SeSAHA] | – | 0.4 ± 0.07 | 6.7 ± 0.7 | 0.6 ± 0.07 | 49.3 ± 6.7 | 36.5 ± 4.3 | 235.5 ± 40.3 | 15.4 ± 2.1 | 38.4 ± 1.1 | 53.7 ± 0.3 | – | > 1.8 µM | – | – | more than 10 fold
